This is an account of results in patent US11850233B2, “Reduced adaptive microbial resistance treatment for flesh eating disease (necrotizing fasciitis)” (priority 2019, dated 2023).

“Also recorded” adds a separate entry of the source. Counter-ions that a name gives are not always drawn. Like-named read-outs stand apart in the source and are kept apart here.

In data set [1] the test system is E. coli (BL21) bacteria. In words: In vitro inhibition of E. coli (BL21) growth on LB agar plates, dark or irradiated. Type of data set: cell-based. An excerpt: E. coli (BL21) bacteria was used as a model prokaryote to determine the efficacy of the inventive treatment composition to kill bacteria. The effect of inventive composition as well as each individual component of the composition were all tested to determine the effect each on the growth of E. coli bacteria. The procedure described in Herschmann, R. J. et al (2019) “Effect of toxic metal ions on photosensitized singlet oxygen generation for photodegradation of polyaromatic hydrocarbon derivatives and inactivation of Escherichia coli” Photochemistry and Photobiology 86, 890-894, was followed. The bacterial cultures were grown in an incubator in Luria-Broth (LB)—Lennox formulation at 28° C. with shaking at 250 rpm. Once the cells reached the beginning of their exponential growth phase (A600=0.2), one milliliter aliquots were removed and centrifuged. The resulting pellets were washed once with sterile water and then resuspended in 500.0 μL of sterile water. The resuspended bacteria were mixed with 200.0 μL of stock solutions of the components or the multifunctional was selected for testing at 0.3 ppm for all components of the composition. The experimental samples were irradiated in a Rayonet photoreactor for 10 minutes or covered and kept in the dark for 10 minutes. Controls were prepared using 200.0 μL of sterile water were also prepared with one control being irradiated and the other control being kept in the dark. All samples were then briefly vortexed to thoroughly mix samples, and 20.0 μL aliquots of each sample were evenly spread using standard techniques over individual LB agar petri dishes. The plates were inverted and incubated at 28° C. for 48 hours. Results are reported as observed effects of the composition and each component of the composition on the inhibition of the growth of E. coli on the plates.

The test system of data set [2] is E. coli (BL21) bacteria. Conditions: cited from earlier work.
For data set [3], the system named is MCF-7 breast cancer cells. As to the kind of experiment: MTS assay of MCF-7 breast cancer cell proliferation, dark or irradiated. Conditions: aerobic, 0.3 ppm, after 48 hours. It is filed as cell-based. As for the experimental part: For breast cancer cells experiment, a stored sample was taken and incubated for 3 to 5 minutes until room temperature. 5 mL of supplemented medium was placed in a 15 mL centrifuge tube. The contents in the cryotube were transferred into the 15 mL centrifuge tube containing the 5 mL medium. This mixture was centrifuged for 5 minutes at 1000 rpm. The supernatant was removed, and 3 mL of the medium was added to the cells and mixed thoroughly. From this mixture, 1 mL was placed into three separate culture flasks with 11 mL of medium each. These flasks were placed in a humidified atmosphere of 32° C. and 5% CO2. After incubation, cells were rinsed with PBS and aspirated. Cells were washed with trypsin, covered and placed in the incubator for five minutes. Solutions were then mixed with 4 mL of medium and subsequently transferred into a 15 mL centrifuge tube to be centrifuged for 5 minutes at 1000 rpm. The supernatant was then aspirated, and cells were re-suspended in 3-10 mL of medium. From here, 1 mL aliquots of this mixture were placed with 11 mL of medium in a new flask. Lastly, these flasks were placed in humidified atmosphere of 32° C. and 5% CO2. An aliquot of the stock solution (i.e. 9.5 mL) was removed from the stock culture and combined with an appropriate amount of regular medium (i.e. 220.5 mL). After proper mixing the stock with fresh media, 3 mL of the mixture were placed in each of the wells in a 6-well plate. Using the manufacturer's protocol, a MTS assay was performed to assess cell proliferation and toxicity of the multifunctional treatment composition. The concentrations of inventive treatment composition and its individual components were 0.3 ppm, until adjusted. The proliferation(s) of cells were compared to a control of cells alone. The growth the control was standardized as 100% growth and the cell proliferation in the presence of the treatment composition was observed and reported on the bases of percent when compared to the control. Similar procedure was followed for light experiment where samples were irradiated in a Rayonet photoreactor for 10 minutes.

Data set [4] is described as follows: Rate of DHN photooxidation under visible light irradiation (absorption at 300 nm). Type of data set: physicochemical. Conditions: Zinc (II) 0.000 ppm, TMPyP 3.67×10^−7 M, DHN 1.2×10^−4 M, aerobic aqueous. The method, then: Quartz cuvettes with 1 cm path-length and 3.0 mL volume were used for all measurements.
For singlet oxygenation experiment, a 3.0 mL solution of DHN (1.2×10^−4 M) and TMPyP (3.67×10^−7 M) was prepared by mixing 36 μL of 1×10^−2 M of DHN standard solution and 1.10 μL of 1×10^−3 M of TMPyP standard solution with ultrapure water at room temperature in an open atmosphere. Singlet oxygenation of sample was conducted in a Rayonet photoreactor for approximately 10 min at 28° C. and the photooxidation of DHN was monitored by recording a decrease in UV-Vis absorption of DHN at 300 nm for 10 min in 2 min intervals.

The conditions of data set [5]: known value of the standard, prior art; cited from earlier work.
Where [6] appears, read: dark, aerobic, 0.3 ppm (Example 1 composition: Zn(II) 0.15 ppm + TMPyP 0.15 ppm), 10 minutes, plates after 48 hours.
[7] abbreviates: visible light irradiation 10 minutes, aerobic, 0.3 ppm (composition: Zn(II) 0.15 ppm + TMPyP 0.15 ppm), plates after 48 hours.

`[Fe+2]` [Iron(II)]: the “inhibition of growth of E. coli” value in the data set with E. coli (BL21) bacteria [1] (setting [6]) and with E. coli (BL21) bacteria [1] (setting [7]) was “zero inhibition” in each case.
Turning to `O=C(N[C@H](CO)[C@H](O)c1ccc([N+](=O)[O-])cc1)C(Cl)Cl` [chloramphenicol, Chloramphenicol], the “inhibition of growth of E. coli” value in the data set on E. coli (BL21) bacteria [1] (setting [6]) is “Almost no inhibition”.
Take “meso-tetrakis(N-methyl-4-pyridyl) porphyrin with Zn metal stably bound into the core of porphyrin [ZnTMPyP]”: the “inhibition of growth of E. coli” value in the data set with E. coli (BL21) bacteria [1] (setting [6]) is “almost no inhibition”; in the data set on E. coli (BL21) bacteria [1] (setting [7]), “inhibition of growth”. Besides, in the data set with E. coli (BL21) bacteria [2] (dark conditions, tests by others or PCT/US2018/024338), the “E. coli killing / growth inhibition reported earlier” value is “not effective”.
For the compound `C[n+]1ccc(-c2c3nc(c(-c4cc[n+](C)cc4)c4ccc([nH]4)c(-c4cc[n+](C)cc4)c4nc(c(-c5cc[n+](C)cc5)c5ccc2[nH]5)C=C4)C=C3)cc1.[Cl-].[Cl-].[Cl-].[Cl-]` [TMPyP, meso-tetra(N-methyl-4-pyridyl) porphyrin tetrachloride], in the data set on E. coli (BL21) bacteria [1], the “inhibition of growth of E. coli bacteria” value amounted to 100%. Moreover, the “inhibition of growth of MCF-7 breast cancer cells” value in data set [3] (dark) is on record as “almost no inhibition”; in data set [3] (visible light irradiation) it was “nearly complete inhibition”. Besides, the “Rate Constant, k of DHN photooxidation” value in data set [4] was found to be 0.0001601 s⁻¹. For the same compound, the “E. coli growth inhibition reported by others” value in the data set on E. coli (BL21) bacteria [2] (light, aerobic conditions, Khurana et al 2019) is given as “inhibits E. coli growth”.
In the case of `CC1(C)S[C@@H]2[C@H](NC(=O)[C@H](N)c3ccccc3)C(=O)N2[C@H]1C(=O)O` [ampicillin, Ampicillin], in the data set on E. coli (BL21) bacteria [1] (setting [6]), the “inhibition of growth of E. coli” value was “Almost no inhibition”.
On to `[Co+2]` [cobalt (II)], for which the “inhibition of growth of E. coli” value in the data set on E. coli (BL21) bacteria [1] is on record as “zero inhibition”.
For `[Zn+2]` [Zn(II) ions, zinc (II) sulfate], the “inhibition of growth of E. coli” value in the data set on E. coli (BL21) bacteria [1] is listed as “essentially no noticeable inhibition; also recorded: almost no inhibition”. Moreover, the results for the “inhibition of growth of MCF-7 breast cancer cells” value in data set [3] (dark) and in data set [3] (visible light irradiation) were “no inhibition effect” and “little or no inhibition effect”, respectively.
On to `CN(C)c1ccc2nc3ccc(=[N+](C)C)cc-3sc2c1` [methylene blue], for which the “singlet oxygen quantum yield (ϕΔ)” value in data set [5] is listed as 0.52.
For the compound `[Mn+2]` [manganese(II)], the “inhibition of growth of E. coli” value in the data set with E. coli (BL21) bacteria [1] (setting [6]) and in the data set on E. coli (BL21) bacteria [1] (setting [7]) was “zero inhibition” throughout.
